From paper PMC9607164, “Rational Design, Synthesis and Biological Evaluation of Novel Pyrazoline-Based Antiproliferative Agents in MCF-7 Cancer Cells” (Pharmaceuticals, 2022)
Several values for one entry are separate records, joined by “and”; a condition that tells them apart may be missing. Identical values can stand only once. Like-named read-outs stand apart in the source and are kept apart here. Values belong to the compound of their own block, whether it stands above or below them.

What was measured:
mutant EGFR (L858R) = system: mutant EGFR (L858R); design: method as in PMID 35427766; conditions: allosteric inhibitor; cited from earlier work
MCF-7 cells [1] = test: Annexin V/PI staining flow cytometry; type: cell-based; conditions: MCF-7, treated at IC50, 48 h; for late apoptosis: AV+/PI+; for early apoptosis: AV+/PI−; for apoptotic cell death (total): control 0.68%
Experimental: MCF-7 breast cancer cells were seeded into 6-well culture plates (3–5 × 10^5 cells/well) and incubated for 24 h. […] After that, the collection of the media supernatants and the cells was performed before undergoing rinsing with ice-cold PBS. The cells were suspended in 100 µL of annexin-binding buffer solution “25 mM CaCl2, 1.4 M NaCl, and 0.1 M Hepes/NaOH, pH 7.4” and incubated with “Annexin V-FITC solution (1:100) and propidium iodide (PI)” at a concentration equal 10 µg/mL in the dark for 30 min. Stained cells were then obtained by a Cytoflex FACS machine, and data analysis was performed using cytExpert software.

HER2 Kinase = target: T1, HER2 Kinase (Homo sapiens, UniProt P04626); test: HER2 Kinase Assay Kit (BPS Bioscience); type: biochemical; conditions: mean ± SD of three replicates, five concentrations
T1 construct: purchased BPS Bioscience 40721
Experimental: (§1) Compounds’ autophosphorylation percentage inhibition was computed according to the following equation: […] , then IC50 values were calculated using GraphPad prism software.

[2] = system: MCF-10A normal breast cells; test: MTT cytotoxicity assay on MCF-10A; type: cell-based; conditions: Homo sapiens, 48 h, n = 3, read-out: IC50 ± SD, MCF-10A
Experimental: (§2) Both breast cancer (MCF-7) and normal breast (MCF-10A) cells were purchased from National Research Institute, Egypt, and maintained in complete media of RPMI-1640 medium L-Glutamine (Lonza Verviers SPRL, Belgium, cat#12-604F). Cells were incubated following standard tissue culture work. Cell viability was measured 48 h later, utilizing MTT colorimetric assay (Promega, Madison, WI, USA). Absorbance was consequently assessed (at 570 nm) using an ELISA microplate reader (BIO-RAD, model iMark, Tokyo, Japan). Using GraphPad Prism 7, the IC50 values were determined, and the viability at each concentration was determined in comparison to the control.

MCF-7 cells [3] = test: DNA content flow cytometry cell cycle analysis; type: cell-based; conditions: MCF-7 after treatment
Casp-9 = test: RT-PCR gene expression in MCF-7 cells; type: cell-based; conditions: MCF-7, IC50, 48 h, normalized to β-actin, untreated = 1
Experimental: (§3) Furthermore, to explore the apoptotic pathway, gene expression of proapoptotic genes (P53, Bax, Caspapses-3,8,9) and antiapoptotic gene (Bcl-2) was evaluated using routine RT-PCR in the untreated and treated MCF-7 cells. Ct values were calculated to determine the relative genes expression in all samples by normalization to β-actin (housekeeping gene).

Casp-8 = test: RT-PCR gene expression in MCF-7 cells; type: cell-based; conditions: MCF-7, IC50, 48 h, normalized to β-actin, untreated = 1
Experimental: as §3

Bcl-2 = test: RT-PCR gene expression in MCF-7 cells; type: cell-based; conditions: MCF-7, IC50, 48 h, normalized to β-actin, untreated = 1
Experimental: as §3

Bax = test: RT-PCR gene expression in MCF-7 cells; type: cell-based; conditions: MCF-7, IC50, 48 h, normalized to β-actin, untreated = 1
Experimental: as §3

P53 = test: RT-PCR gene expression in MCF-7 cells; type: cell-based; conditions: MCF-7, IC50, 48 h, normalized to β-actin, untreated = 1
Experimental: as §3

Casp-3 = test: RT-PCR gene expression in MCF-7 cells; type: cell-based; conditions: MCF-7, IC50, 48 h, normalized to β-actin, untreated = 1
Experimental: as §3

EGFR Kinase = target: T2, EGFR Kinase (Homo sapiens, UniProt P00533); test: EGFR Kinase Assay Kit (BPS Bioscience); type: biochemical; conditions: mean ± SD of three replicates, five concentrations
T2 construct: purchased BPS Bioscience 40321
Experimental: as §1

MCF-7 cancer cells = test: MTT cytotoxicity assay on MCF-7; type: cell-based; conditions: for LogIC50 MCF-7: Figure 4 curve fit, cell viability vs. log [conc. µM]; for IC50: MTT assay, 48 h, n = 3, NA: Non-Active, read-out: IC50 ± SD, MCF-7
Experimental: as §2

[4] = type: in vivo
Description: In vivo experiments for lethal dose (LD50), experimental design, tumor mass, blood parameters, histopathological examinations were accomplished as previously described. After inoculating the tumor cells, masses of the solid tumor started to appear ten days later. […]. Animals from each group were sacrificed, and their blood was drawn to measure hemoglobin (Hb), red blood cell (RBC), white blood cell (WBC), and liver enzymes (ALT, AST, albumin, and total protein) levels.

[5] = system: MCF-7 cells (Xenograft model); type: in vivo, mice; conditions: 10 mg/kg BW, IP
Description: In vivo experiments for lethal dose (LD50), experimental design, tumor mass, blood parameters, histopathological examinations were accomplished as previously described. After inoculating the tumor cells, masses of the solid tumor started to appear ten days later. […] Animals from each group were sacrificed, and their blood was drawn to measure hemoglobin (Hb), red blood cell (RBC), white blood cell (WBC), and liver enzymes (ALT, AST, albumin, and total protein) levels.

EGFR = system: EGFR; design: method as in PMID 33872924; conditions: reported phenylthiazole derivative; cited from earlier work

T2 sequence (P00533 25-1210): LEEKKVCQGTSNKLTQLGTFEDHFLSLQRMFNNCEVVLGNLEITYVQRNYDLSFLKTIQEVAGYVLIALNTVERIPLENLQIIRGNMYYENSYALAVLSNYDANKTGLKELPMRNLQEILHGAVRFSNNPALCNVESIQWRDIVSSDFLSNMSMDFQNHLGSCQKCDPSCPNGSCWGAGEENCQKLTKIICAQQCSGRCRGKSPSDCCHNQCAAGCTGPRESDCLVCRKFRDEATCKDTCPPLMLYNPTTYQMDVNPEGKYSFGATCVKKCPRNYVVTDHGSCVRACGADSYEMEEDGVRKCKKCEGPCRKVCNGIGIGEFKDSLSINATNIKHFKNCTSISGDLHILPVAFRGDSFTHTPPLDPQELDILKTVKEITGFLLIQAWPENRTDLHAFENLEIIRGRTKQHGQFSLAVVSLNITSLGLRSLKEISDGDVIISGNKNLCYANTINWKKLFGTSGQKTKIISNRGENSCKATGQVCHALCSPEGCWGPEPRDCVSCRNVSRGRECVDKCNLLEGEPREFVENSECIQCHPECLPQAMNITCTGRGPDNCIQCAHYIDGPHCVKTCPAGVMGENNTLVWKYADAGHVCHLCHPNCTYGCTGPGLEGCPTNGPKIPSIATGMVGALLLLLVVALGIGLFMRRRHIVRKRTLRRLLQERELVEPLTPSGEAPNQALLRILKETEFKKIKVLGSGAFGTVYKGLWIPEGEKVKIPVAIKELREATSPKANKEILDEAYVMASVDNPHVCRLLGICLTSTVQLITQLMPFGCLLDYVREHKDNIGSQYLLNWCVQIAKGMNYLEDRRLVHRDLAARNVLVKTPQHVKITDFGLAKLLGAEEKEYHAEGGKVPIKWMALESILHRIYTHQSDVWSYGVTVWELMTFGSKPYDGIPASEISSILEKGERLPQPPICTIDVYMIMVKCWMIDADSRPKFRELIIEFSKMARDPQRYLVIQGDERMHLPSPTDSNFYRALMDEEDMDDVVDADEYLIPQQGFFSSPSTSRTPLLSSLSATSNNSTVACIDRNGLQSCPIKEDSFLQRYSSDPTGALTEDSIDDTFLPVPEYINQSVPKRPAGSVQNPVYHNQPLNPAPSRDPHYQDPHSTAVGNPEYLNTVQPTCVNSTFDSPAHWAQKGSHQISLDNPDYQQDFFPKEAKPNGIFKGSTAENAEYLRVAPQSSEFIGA
T1 sequence (P04626 23-1255): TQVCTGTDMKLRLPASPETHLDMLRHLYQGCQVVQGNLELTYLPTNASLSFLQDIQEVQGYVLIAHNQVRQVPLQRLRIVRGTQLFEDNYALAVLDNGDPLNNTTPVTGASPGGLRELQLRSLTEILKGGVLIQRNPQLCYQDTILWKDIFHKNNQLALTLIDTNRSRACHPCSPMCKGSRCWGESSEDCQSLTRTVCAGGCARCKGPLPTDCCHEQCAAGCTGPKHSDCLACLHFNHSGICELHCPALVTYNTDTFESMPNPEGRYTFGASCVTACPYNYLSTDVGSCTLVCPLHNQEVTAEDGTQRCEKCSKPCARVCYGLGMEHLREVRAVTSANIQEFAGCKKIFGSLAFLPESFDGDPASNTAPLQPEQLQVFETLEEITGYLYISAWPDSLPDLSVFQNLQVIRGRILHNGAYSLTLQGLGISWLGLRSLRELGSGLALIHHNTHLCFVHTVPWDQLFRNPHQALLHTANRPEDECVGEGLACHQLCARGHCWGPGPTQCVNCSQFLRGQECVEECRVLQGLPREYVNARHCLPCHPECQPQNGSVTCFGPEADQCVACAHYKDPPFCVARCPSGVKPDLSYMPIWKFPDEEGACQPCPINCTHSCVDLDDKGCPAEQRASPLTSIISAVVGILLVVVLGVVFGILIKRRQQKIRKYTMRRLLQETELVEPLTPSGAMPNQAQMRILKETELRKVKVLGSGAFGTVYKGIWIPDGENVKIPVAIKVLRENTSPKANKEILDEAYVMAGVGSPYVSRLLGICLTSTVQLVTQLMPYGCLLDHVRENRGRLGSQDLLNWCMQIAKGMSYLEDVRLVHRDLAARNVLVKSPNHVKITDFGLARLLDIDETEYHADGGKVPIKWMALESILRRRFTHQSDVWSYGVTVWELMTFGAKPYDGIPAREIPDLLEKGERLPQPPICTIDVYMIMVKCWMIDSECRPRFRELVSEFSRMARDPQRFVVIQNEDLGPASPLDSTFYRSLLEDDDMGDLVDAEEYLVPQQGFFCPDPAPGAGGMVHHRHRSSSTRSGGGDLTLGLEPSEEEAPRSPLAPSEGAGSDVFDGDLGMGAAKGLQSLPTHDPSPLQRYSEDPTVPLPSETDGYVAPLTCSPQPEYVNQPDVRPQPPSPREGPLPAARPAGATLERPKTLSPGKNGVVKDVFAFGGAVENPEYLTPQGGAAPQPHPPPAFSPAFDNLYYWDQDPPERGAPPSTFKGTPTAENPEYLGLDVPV

Structure (SMILES): O=C(Nc1nccs1)C(c1cc(F)ccc1O)N1Cc2ccccc2C1=O (stereo not shown) [EAI045]
- IC50 (mutant EGFR (L858R)): 0.019 µM

- IC50 (HER2 Kinase): 0.027 ± 0.002 µM
- IC50 (EGFR Kinase): 0.014 ± 0.001 µM
Structure (SMILES): COc1ccc(C2=NN(c3nc(-c4ccc(F)cc4)cs3)C(c3ccc(Cl)cc3)C2)cc1OC (stereo not shown) [Compound 6k, 2-(5-(4-Chlorophenyl)-3-(3,4-dimethoxyphenyl)-4,5-dihydro-1H-pyrazol-1-yl)-4-(4-fluorophenyl)thiazole]
- late apoptosis (MCF-7 cells [1]): 14.38%
- early apoptosis (MCF-7 cells [1]): 8.06%
- apoptotic cell death (total) (MCF-7 cells [1]): 22.44%
- IC50 [2]: ≥ 50 µM
- percentage of cells in the G2/M phase (MCF-7 cells [3]; printed 'reduced by', control 9.7%): 2.01%
- Fold Change = 2^−ΔΔCT, Casp-9 (Casp-9): 6.07 fold and 6.07 ± 0.23 fold
- Fold Change = 2^−ΔΔCT, Casp-8 (Casp-8): 3.91 fold and 3.91 ± 0.42 fold
- Fold Change = 2^−ΔΔCT, Bcl-2 (Bcl-2): 0.41 fold and 0.41 ± 0.09 fold
- Fold Change = 2^−ΔΔCT, Bax (Bax): 5.24 fold and 5.24 ± 0.4 fold
- Fold Change = 2^−ΔΔCT, P53 (P53): 3.91 fold and 3.91 ± 0.50 fold
- Fold Change = 2^−ΔΔCT, Casp-3 (Casp-3): 5.79 fold and 5.79 ± 0.4 fold
- LogIC50 MCF-7 (MCF-7 cancer cells): 0.9042
- IC50 (MCF-7 cancer cells; Homo sapiens, MCF7, 48 h): 8.02 µM
- IC50 (MCF-7 cancer cells): 8.02 ± 0.98 µM

Structure (SMILES): COc1ccc(C2CC(c3ccc(OC)c(OC)c3)=NN2c2nc(-c3ccccc3)cs2)cc1 (stereo not shown) [Compound 6e, 2-(3-(3,4-Dimethoxyphenyl)-5-(4-methoxyphenyl)-4,5-dihydro-1H-pyrazol-1-yl)-4-phenylthiazole]
- late apoptosis (MCF-7 cells [1]): 18.52%
- early apoptosis (MCF-7 cells [1]): 9.47%
- apoptotic cell death (total) (MCF-7 cells [1]): 27.99%
- mice weight ([4]; 10 mg/kg BW, IP, MCF-7 control 32.28 g, normal 24.5 g): 28.23 g
- histopathological examination of liver sections ([4]; mouse, in vivo): normal nuclei morphology in most of the cells with slight hydrophobic degeneration
- IC50 [2]: ≥ 50 µM
- percentage of cells in the S phase (MCF-7 cells [3]; control 34.18): 44.52%
- Fold Change = 2^−ΔΔCT, Casp-9 (Casp-9): 8.19 fold and 8.19 ± 0.32 fold
- Fold Change = 2^−ΔΔCT, Casp-8 (Casp-8): 1.71 fold and 1.71 ± 0.18 fold
- Fold Change = 2^−ΔΔCT, Bcl-2 (Bcl-2): 0.22 ± 0.06 fold
- Fold Change = 2^−ΔΔCT, Bax (Bax): 6.39 fold and 6.39 ± 0.8 fold
- Fold Change = 2^−ΔΔCT, P53 (P53): 4.85 ± 0.4 fold
- Fold Change = 2^−ΔΔCT, Casp-3 (Casp-3): 7.12 fold and 7.12 ± 0.53 fold
- tumor inhibition ratio ([5]; seven administrations): 52.46%
- tumor volume ([5]; decreased from 89.8): 28.4 mm^3
- IC50 (EGFR Kinase): 0.009 ± 0.001 µM
- LogIC50 MCF-7 (MCF-7 cancer cells): 0.862
- IC50 (MCF-7 cancer cells; Homo sapiens, MCF7, 48 h): 7.28 µM
- IC50 (MCF-7 cancer cells): 7.21 ± 0.48 µM

Structure (SMILES): COc1ccc(-c2csc(NC(=O)CSc3nc(-c4ccc(OC)cc4)c(C#N)c(=O)[nH]3)n2)cc1 [VI]
- IC50 (EGFR): 0.19 µM
